These results are taken from paper PMC8231556, “Inhibiting Endothelial Cell Function in Normal and Tumor Angiogenesis Using BMP Type I Receptor Macrocyclic Kinase Inhibitors” (Cancers, 2021).

What all share (assay): radiometric kinase profiling (33 PanQinase)
Type in all cases: biochemical

For test [1], the target named is T1, PRKD2 (Homo sapiens, UniProt Q9BZL6).
T1 construct: purchased ProQinase (33PanQinase Activity Assay)
T1 sequence (Q9BZL6 1-878): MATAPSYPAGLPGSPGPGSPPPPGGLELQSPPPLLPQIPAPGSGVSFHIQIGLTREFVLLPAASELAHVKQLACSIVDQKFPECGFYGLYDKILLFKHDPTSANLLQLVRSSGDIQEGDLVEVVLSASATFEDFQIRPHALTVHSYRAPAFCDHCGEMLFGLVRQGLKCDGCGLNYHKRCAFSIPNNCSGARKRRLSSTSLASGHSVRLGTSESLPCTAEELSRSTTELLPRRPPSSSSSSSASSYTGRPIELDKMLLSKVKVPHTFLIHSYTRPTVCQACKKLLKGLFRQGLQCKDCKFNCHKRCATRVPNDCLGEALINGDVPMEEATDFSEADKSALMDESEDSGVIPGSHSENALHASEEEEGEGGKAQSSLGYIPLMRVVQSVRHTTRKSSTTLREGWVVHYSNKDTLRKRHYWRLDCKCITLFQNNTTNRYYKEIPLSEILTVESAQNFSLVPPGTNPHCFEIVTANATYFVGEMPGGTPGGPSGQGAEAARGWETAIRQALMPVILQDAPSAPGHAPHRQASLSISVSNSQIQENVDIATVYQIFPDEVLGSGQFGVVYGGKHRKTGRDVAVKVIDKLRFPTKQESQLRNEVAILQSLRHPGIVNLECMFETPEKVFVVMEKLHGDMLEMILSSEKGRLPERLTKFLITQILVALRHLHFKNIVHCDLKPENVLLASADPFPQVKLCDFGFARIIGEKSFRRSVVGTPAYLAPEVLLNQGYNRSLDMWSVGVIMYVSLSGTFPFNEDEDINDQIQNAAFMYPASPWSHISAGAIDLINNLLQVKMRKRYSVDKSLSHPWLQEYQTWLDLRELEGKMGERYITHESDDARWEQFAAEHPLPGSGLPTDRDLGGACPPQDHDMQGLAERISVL
The following applies: read-out: Inhibitory effect (%) PRKD2. In short, it runs like this:
(§1)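 Enzyme/substrate mixes were incubated with [γ-33P]-ATP and compound (added as a 0.1 μM solution in 10% DMSO) at 30 °C for 60 min, then stopped with H3PO4 and washed with NaCl. 33P incorporation was scintillation-counted, and residual activity (%) was normalized to untreated control and background.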

In test [2] the target is T2, DDR2 (Homo sapiens, UniProt Q16832).
T2 construct: purchased Proqinase, Germany
T2 sequence (Q16832 22-855): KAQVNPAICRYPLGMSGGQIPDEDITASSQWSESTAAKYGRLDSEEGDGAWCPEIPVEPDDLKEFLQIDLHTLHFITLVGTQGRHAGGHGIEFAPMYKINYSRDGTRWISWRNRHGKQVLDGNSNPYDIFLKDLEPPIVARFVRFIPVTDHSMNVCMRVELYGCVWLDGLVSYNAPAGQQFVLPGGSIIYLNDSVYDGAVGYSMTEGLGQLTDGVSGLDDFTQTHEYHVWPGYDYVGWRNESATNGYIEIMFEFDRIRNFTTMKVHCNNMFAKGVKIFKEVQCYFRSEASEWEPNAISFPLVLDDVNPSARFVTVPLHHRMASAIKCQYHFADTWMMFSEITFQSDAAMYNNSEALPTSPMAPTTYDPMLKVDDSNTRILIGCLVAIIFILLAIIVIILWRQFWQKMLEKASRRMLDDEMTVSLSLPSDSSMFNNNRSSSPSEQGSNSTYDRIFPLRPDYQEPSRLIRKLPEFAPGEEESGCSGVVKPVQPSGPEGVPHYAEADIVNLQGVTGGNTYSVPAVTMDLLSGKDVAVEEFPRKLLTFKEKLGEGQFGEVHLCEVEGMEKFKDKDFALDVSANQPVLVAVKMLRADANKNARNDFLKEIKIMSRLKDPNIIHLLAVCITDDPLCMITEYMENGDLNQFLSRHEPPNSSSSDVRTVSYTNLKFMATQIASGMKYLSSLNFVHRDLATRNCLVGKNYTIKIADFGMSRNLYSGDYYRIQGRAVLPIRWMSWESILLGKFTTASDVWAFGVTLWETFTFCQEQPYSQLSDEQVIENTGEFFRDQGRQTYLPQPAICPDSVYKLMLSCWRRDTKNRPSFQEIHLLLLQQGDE
The following applies: read-out: Inhibitory effect (%) DDR2. In short, it runs like this:
as §1

Test [3] has as its target T3, HIPK1 (Homo sapiens, UniProt Q86Z02).
T3 construct: purchased ProQinase (33PanQinase Activity Assay)
The following applies: read-out: Inhibitory effect (%) HIPK1. In short, it runs like this:
as §1

Test [4] has as its target T4, PRKACA (Homo sapiens, UniProt P17612).
T4 construct: purchased ProQinase (33PanQinase Activity Assay)
The following applies: read-out: Inhibitory effect (%) PRKACA. In short, it runs like this: as §1

The target of test [5] is T5, AKT1 (Homo sapiens, UniProt P31749).
T5 construct: purchased Proqinase, Germany
T5 sequence (P31749 whole entry): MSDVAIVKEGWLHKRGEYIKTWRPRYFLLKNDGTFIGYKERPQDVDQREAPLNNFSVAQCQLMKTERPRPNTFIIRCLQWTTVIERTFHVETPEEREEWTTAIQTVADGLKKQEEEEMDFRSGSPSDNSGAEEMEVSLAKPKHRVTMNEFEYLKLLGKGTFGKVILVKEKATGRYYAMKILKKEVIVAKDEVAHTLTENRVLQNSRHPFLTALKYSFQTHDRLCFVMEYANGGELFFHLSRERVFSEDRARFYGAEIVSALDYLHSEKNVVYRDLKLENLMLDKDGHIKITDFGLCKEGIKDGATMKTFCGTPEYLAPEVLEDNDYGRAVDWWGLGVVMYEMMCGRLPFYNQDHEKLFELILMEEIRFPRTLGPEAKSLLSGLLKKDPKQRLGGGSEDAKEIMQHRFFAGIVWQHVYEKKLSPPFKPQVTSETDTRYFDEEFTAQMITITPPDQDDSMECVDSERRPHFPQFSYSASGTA
The following applies: read-out: Inhibitory effect (%) AKT1. In short, it runs like this: as §1

The target of test [6] is T6, JAK2 (Homo sapiens, UniProt O60674).
T6 construct: purchased ProQinase (33PanQinase Activity Assay)
T6 sequence (O60674 whole entry): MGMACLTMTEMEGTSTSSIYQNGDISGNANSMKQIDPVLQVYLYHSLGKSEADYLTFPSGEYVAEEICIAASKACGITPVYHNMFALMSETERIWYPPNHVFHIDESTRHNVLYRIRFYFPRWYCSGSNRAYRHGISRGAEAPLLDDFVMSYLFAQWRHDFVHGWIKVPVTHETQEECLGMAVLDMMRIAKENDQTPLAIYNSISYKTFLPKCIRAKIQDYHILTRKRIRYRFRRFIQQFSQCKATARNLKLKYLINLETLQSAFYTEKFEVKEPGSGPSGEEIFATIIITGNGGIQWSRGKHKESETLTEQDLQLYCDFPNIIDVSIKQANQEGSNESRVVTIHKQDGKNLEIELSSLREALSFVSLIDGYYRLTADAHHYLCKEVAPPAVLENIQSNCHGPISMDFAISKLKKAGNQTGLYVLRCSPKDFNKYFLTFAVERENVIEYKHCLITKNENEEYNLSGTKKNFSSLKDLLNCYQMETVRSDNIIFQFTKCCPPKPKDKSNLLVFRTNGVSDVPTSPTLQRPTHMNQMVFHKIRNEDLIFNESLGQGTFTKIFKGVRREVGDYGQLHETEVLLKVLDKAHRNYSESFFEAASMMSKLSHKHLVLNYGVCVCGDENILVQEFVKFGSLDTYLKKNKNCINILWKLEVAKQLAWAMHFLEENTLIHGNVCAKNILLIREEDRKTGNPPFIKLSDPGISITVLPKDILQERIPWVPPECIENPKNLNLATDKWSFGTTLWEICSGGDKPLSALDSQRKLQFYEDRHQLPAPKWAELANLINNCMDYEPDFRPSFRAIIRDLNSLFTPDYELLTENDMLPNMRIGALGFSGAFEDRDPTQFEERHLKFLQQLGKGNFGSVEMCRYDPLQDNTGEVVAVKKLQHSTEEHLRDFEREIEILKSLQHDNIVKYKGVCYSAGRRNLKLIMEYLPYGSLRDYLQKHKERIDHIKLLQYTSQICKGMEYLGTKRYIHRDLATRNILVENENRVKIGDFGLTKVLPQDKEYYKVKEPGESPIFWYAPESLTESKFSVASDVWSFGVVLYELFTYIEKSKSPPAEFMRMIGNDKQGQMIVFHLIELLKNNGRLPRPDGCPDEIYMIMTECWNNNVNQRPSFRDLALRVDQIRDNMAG
The following applies: read-out: Inhibitory effect (%) JAK2. In short, it runs like this: as §1

In test [7] the target is T7, ACVR1 (Homo sapiens, UniProt Q04771).
T7 construct: purchased Proqinase, Germany
T7 sequence (Q04771 21-509): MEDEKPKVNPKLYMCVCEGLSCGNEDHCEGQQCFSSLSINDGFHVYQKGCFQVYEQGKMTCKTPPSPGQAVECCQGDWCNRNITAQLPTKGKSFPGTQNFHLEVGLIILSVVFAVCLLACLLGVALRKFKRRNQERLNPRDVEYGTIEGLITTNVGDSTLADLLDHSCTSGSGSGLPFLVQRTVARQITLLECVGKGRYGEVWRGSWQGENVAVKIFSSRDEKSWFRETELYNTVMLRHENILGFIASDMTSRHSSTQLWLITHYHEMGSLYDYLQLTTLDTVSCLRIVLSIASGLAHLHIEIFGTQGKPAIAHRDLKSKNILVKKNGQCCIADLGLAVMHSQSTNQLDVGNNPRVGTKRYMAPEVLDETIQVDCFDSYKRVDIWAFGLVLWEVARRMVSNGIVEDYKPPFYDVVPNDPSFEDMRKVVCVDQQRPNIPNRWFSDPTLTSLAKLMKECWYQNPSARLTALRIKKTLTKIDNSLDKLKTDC
To be noted: read-out: Inhibitory effect (%) ACVR1. In a few lines: as §1

T3 sequence (Q86Z02 whole entry): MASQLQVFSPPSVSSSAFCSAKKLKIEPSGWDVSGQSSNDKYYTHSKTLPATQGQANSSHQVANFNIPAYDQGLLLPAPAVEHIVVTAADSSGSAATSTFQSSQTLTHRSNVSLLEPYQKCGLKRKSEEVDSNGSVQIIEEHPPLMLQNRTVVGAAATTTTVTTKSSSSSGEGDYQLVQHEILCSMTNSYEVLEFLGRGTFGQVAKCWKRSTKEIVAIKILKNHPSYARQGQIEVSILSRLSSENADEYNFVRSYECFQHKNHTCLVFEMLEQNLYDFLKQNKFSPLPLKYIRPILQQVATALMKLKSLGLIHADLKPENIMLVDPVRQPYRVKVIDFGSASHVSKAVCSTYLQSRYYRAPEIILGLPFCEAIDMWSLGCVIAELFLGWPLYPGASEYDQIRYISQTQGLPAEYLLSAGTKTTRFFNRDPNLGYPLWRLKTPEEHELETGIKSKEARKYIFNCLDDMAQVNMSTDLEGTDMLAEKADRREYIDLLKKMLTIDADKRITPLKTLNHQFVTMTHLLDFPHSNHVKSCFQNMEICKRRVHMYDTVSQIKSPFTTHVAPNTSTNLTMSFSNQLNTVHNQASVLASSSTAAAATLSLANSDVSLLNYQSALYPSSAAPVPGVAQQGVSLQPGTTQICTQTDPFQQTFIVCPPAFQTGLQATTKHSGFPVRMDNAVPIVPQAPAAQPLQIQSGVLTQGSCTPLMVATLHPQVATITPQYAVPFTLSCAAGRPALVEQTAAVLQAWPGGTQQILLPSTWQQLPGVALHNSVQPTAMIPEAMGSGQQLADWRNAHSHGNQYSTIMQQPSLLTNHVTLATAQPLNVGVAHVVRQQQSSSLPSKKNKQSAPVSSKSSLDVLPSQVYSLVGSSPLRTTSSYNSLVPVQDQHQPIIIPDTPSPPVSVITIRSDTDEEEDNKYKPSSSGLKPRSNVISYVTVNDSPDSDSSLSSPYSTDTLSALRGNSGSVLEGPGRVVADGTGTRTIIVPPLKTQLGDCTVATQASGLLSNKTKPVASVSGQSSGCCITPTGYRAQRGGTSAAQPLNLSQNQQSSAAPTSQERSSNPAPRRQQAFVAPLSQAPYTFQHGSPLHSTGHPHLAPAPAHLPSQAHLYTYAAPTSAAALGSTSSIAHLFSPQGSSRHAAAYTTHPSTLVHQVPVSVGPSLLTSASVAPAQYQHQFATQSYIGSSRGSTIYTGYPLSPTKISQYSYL

On to `c1ccc2c(-c3cnn4cc(-c5ccc(N6CCNCC6)cc5)cnc34)ccnc2c1` [LDN-193189, reference compound], for which the inhibition at 0.1 µM in test [1] was -23.1%; in test [2], 10.1%; in test [3] it was -13.4%; in test [4], -14.1%; in test [5], 16.1%; in test [6], 5.83%. The inhibition at 0.1 µM in test [7] is 67.7%.
On to `CN1CCc2cccc(c2)Nc2nccc(n2)N2CCCc3cc(ccc32)C1` [OD16], for which the inhibition at 0.1 µM was 32.2% in test [1]; 33.5% in test [2]; -7.23% in test [3]; -19.5% in test [4]; -4.07% in test [5]; 50.2% in test [6]. For the same molecule, the inhibition at 0.1 µM in test [7] worked out at 90.2%.
As to `CN1CCC(=O)NCCNc2ccn3ncc(c3n2)-c2cccc(c2)C1` [OD29], the inhibition at 0.1 µM is 5.45% in test [1]; 12.9% in test [2]; 6.23% in test [3]; 9.09% in test [4]; -2.83% in test [5]; 14.4% in test [6]. Also, the inhibition at 0.1 µM in test [7] is 92.5%.
